Source: ChEMBL document CHEMBL3046247, “Anti-inflammatory and antioxidant activities of some extracts and pure natural products isolated from Rhus tripartitum (Ucria)” (Med Chem Res, 2010)
In brackets after ≈: the same amount, converted by molar mass.

What was measured:
Type in all cases: functional
[1] = Antioxidant activity assessed as inhibition of ABTS radical formation at 0.12 mg/ml measured at 5 min relative to trolox
[2] = Antioxidant activity assessed as inhibition of ABTS radical formation at 1 mg/ml measured at 5 min relative to trolox
[3] = Antioxidant activity assessed as inhibition of ABTS radical formation at 0.03 mg/ml measured at 15 min relative to trolox
[4] = Antioxidant activity assessed as inhibition of ABTS radical formation at 0.06 mg/ml measured at 5 min relative to trolox
[5] = Antioxidant activity assessed as inhibition of ABTS radical formation at 1 mg/ml measured at 10 min relative to trolox
[6] = Antioxidant activity assessed as inhibition of ABTS radical formation at 0.5 mg/ml measured at 5 min relative to trolox
[7] = Antioxidant activity assessed as inhibition of ABTS radical formation at 0.03 mg/ml measured at 10 min relative to trolox
[8] = Antioxidant activity assessed as inhibition of ABTS radical formation at 0.03 mg/ml measured at 20 min relative to trolox
[9] = Antioxidant activity assessed as inhibition of ABTS radical formation at 0.25 mg/ml measured at 5 min relative to trolox
[10] = Antioxidant activity assessed as inhibition of ABTS radical formation at 0.06 mg/ml measured at 10 min relative to trolox
[11] = Antioxidant activity assessed as trolox equivalent of ABTS radical scavenging activity at 5 min
[12] = test system: Radical scavenging activity; assay: Antioxidant activity assessed as inhibition of DPPH radical formation measured at 30 min relative to trolox
[13] = Antioxidant activity assessed as inhibition of ABTS radical formation at 0.25 mg/ml measured at 10 min relative to trolox
[14] = Antioxidant activity assessed as inhibition of ABTS radical formation at 0.12 mg/ml measured at 15 min relative to trolox
[15] = Antioxidant activity assessed as inhibition of ABTS radical formation at 0.06 mg/ml measured at 15 min relative to trolox
[16] = test system: Radical scavenging activity; assay: Antioxidant activity assessed as inhibition of DPPH radical formation at 1 mg/ml measured at 30 min relative to trolox
[17] = Antioxidant activity assessed as trolox equivalent of ABTS radical scavenging activity at 20 min
[18] = Antioxidant activity assessed as inhibition of ABTS radical formation at 0.5 mg/ml measured at 10 min relative to trolox
[19] = Antioxidant activity assessed as inhibition of ABTS radical formation at 0.03 mg/ml measured at 5 min relative to trolox
[20] = Antioxidant activity assessed as inhibition of ABTS radical formation at 0.5 mg/ml measured at 15 min relative to trolox
[21] = Antioxidant activity assessed as inhibition of ABTS radical formation at 0.25 mg/ml measured at 15 min relative to trolox
[22] = Antioxidant activity assessed as inhibition of ABTS radical formation at 1 mg/ml measured at 15 min relative to trolox
[23] = Antioxidant activity assessed as inhibition of ABTS radical formation at 0.5 mg/ml measured at 20 min relative to trolox
[24] = Antioxidant activity assessed as inhibition of ABTS radical formation at 0.25 mg/ml measured at 20 min relative to trolox
[25] = Antioxidant activity assessed as inhibition of ABTS radical formation at 0.06 mg/ml measured at 20 min relative to trolox
[26] = Antioxidant activity assessed as trolox equivalent of ABTS radical scavenging activity at 15 min
[27] = Antioxidant activity assessed as trolox equivalent of ABTS radical scavenging activity at 10 min
[28] = Antioxidant activity assessed as inhibition of ABTS radical formation at 1 mg/ml measured at 20 min relative to trolox
[29] = Antioxidant activity assessed as inhibition of ABTS radical formation at 0.12 mg/ml measured at 10 min relative to trolox
[30] = Antioxidant activity assessed as inhibition of ABTS radical formation at 0.12 mg/ml measured at 20 min relative to trolox
[31] = test system: Radical scavenging activity; assay: Antioxidant activity assessed as inhibition of DPPH radical formation at 0.2 to 1 mg/ml measured at 30 min relative to trolox

Compound: COc1cc([C@@H]2c3c(cc(OC)c(O)c3OC)C[C@H](CO)[C@H]2CO[C@@H]2O[C@H](CO)[C@@H](O)[C@H](O)[C@H]2O)cc(OC)c1O
- Imax [1]: 23.8%
- Imax [2]: 49.4%
- Imax [3]: 18.9%
- Imax [4]: 18%
- Imax [5]: 55.3%
- Imax [6]: 48.5%
- Imax [7]: 15.3%
- Imax [8]: 23.3%
- Imax [9]: 31.9%
- Imax [10]: 20.8%
- Activity [11]: 1.19 mMequiv/mg
- IC50 [12]: 251.1 µg/mL (≈ 431 µM)
- Imax [13]: 37.8%
- Imax [14]: 30.9%
- Imax [15]: 24.6%
- Imax [16]: 64.4%
- Activity [17]: 1.58 mMequiv/mg
- Imax [18]: 55.5%
- Imax [19]: 13.2%
- Imax [20]: 60.9%
- Imax [21]: 41.6%
- Imax [22]: 60.1%
- Imax [23]: 66.6%
- Imax [24]: 47.8%
- Imax [25]: 29.9%
- Activity [26]: 1.45 mMequiv/mg
- Activity [27]: 1.33 mMequiv/mg
- Imax [28]: 65.5%
- Imax [29]: 27.2%
- Imax [30]: 35.7%

Compound: O=c1c(O)c(-c2cc(O)c(O)c(O)c2)oc2cc(O)cc(O)c12 [MYRICETIN]
- Imax [1]: 45.4%
- Imax [2]: 99.7%
- Imax [3]: 16%
- Imax [31]: 75.1%
- Imax [4]: 27.8%
- Imax [5]: 99.8%
- Imax [6]: 98.5%
- Imax [7]: 14.5%
- Imax [8]: 16.6%
- Imax [9]: 78.8%
- Imax [10]: 29.8%
- Activity [11]: 2.4 mMequiv/mg
- IC50 [12]: 22 µg/mL (≈ 69.1 µM)
- Imax [13]: 83.2%
- Imax [14]: 51.1%
- Imax [15]: 31.6%
- Activity [17]: 2.4 mMequiv/mg
- Imax [18]: 98.7%
- Imax [19]: 13.3%
- Imax [20]: 98.6%
- Imax [21]: 86.1%
- Imax [22]: 99.8%
- Imax [23]: 98.6%
- Imax [24]: 88.6%
- Imax [25]: 32.8%
- Activity [26]: 2.38 mMequiv/mg
- Activity [27]: 2.4 mMequiv/mg
- Imax [28]: 99.8%
- Imax [29]: 48.3%
- Imax [30]: 53.2%
